# Data taken from PMC10141604, “Small-Molecule Inhibition of Androgen Receptor Dimerization as a Strategy against Prostate Cancer” (ACS Central Science, 2023).
# Key:
# Assay type in all cases: cell-based
# [1] = tested on: human liver cells (Chang); test: MTT cell viability assay, Chang; details: 72 h
# Method: (§1) 3-(4,5-dimethythiazol-2-yl)-2,5-diphenyl-2-H-tetrazolium bromide (MTT) colorimetric assay was employed to investigate cell viability. Cells were seeded into 96-well plates with 2-5× 10^3 cells per well (5× 10^3 cells/well for LNCaP, 22RV1, NIH-3T3, GES-1, Chang, […]
# (§2) NCI-H1299, U2OS, U87) for 1 day incubation at 37 °C. Then, the cells were treated with various concentrations of compounds (22.86 nM - 50 μM) and incubated for 72 h. Then, 10 μl MTT (5 mg/ml) was added into each well and incubated for 4 h. Afterwards, 100 μl of triplex 10% SDS-0.1% HCl-phosophate-buffered saline (PBS) solutions was added into each well and incubated for overnight. The absorbance at 570 nm was measured (Eon, Bioteck, Winooski, VT). […]
# [2] = tested on: U2OS, MCF-7, HepG2, HL60, H1299, A549, SW480, U87, Hela cell lines; test: MTT cell viability assay, various human cancer cell lines; details: concentration as high as 50 μM; Enz except U2OS, M17-B15 except A549
# Method: as §1, §2
# [3] = molecular target: T1, PR (Homo sapiens, UniProt P06401); test: Luciferase reporter assay for PR (PC3 cells); details: 10 μM, 10 nM progesterone
# T1 construct: host or cells: PC3
# T1 sequence (P06401 1-933): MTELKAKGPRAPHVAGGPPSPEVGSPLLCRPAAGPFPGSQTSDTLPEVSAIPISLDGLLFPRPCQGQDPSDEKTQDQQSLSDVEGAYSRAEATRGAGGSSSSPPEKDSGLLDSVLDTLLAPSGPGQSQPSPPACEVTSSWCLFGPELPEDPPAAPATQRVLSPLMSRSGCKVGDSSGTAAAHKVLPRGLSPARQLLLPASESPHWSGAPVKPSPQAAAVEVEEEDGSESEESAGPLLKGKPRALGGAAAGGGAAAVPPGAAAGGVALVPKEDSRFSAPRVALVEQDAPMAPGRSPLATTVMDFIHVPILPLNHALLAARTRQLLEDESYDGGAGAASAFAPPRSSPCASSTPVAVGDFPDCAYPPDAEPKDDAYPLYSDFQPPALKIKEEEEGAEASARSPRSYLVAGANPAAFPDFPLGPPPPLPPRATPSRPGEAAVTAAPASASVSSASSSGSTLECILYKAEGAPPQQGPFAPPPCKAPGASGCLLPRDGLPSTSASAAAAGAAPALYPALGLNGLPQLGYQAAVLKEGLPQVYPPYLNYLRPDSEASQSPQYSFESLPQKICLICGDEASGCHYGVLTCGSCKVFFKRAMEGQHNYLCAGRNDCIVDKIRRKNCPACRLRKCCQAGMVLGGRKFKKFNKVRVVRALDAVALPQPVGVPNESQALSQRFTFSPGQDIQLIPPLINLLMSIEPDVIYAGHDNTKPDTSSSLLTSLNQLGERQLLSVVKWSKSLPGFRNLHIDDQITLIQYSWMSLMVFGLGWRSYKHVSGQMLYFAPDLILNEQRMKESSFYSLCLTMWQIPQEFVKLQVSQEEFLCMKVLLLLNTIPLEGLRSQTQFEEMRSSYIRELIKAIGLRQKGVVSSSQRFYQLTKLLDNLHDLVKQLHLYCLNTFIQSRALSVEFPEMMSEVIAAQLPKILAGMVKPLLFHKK
# Method: Luciferase Reporter Assays for PR, GR, and MR
# PC3, HeLa, and HEK293T cells were cultured using 5% CSS RPMI-1640, 5% CSS RPMI-1640 and 10% FBS DMEM media in 96-well plates for 24 h, respectively. For PR induction, PC3 (1 × 10^4 cells/well) were transfected with 50 ng pcDNA3-PRB (#89130, Addgene), 24 ng pGL4.36[luc2P MMTV Hygro] (Promega) and 5 ng Renilla using HG-TransGeneTM transfection reagent (#TG-10012, Genomeditech) for 4 h. For GR induction, Hela (1 × 10^4 cells/well) were transfected with 71 ng pCMV -GR11 (#89105, Addgene), 24 ng pGL4.36[luc2P MMTV Hygro] (Promega) and 5 ng Renilla using lip3000 transfection reagent (#L3000075, Thermofisher) for 24 h. For MR induction, HEK293T (1 × 10^4 cells/well) were transfected with 71 ng pCMV-MR gifted by Liu et al. 28, 24 ng of pGL4.36[luc2P MMTV Hygro] (Promega) and 5 ng Renilla using lip3000 transfec tion reagent for 24 h. For the antagonistic models, 10 nM /well progesterone for PC3 cells , 1 nM/well dexamethasone for HeLa, and 5 nM/well aldosterone for HEK293T cells were added to stimulate the cells. Meanwhile, each cell line was treated with a series concentration of compounds (0.4, 2, and 10 μM). For the agonistic models, the cells were directly treated with the compounds without any hormones. Endogenous hormones progesterone, dexamethasone, and aldosterone were considered as agonists for PR, GR, and MR, respectively. The luciferase activities were assessed using the Dual-Glo Luciferase system (#E1910, Promega). […]
Compound,cytotoxicity against Chang [1],cell viability inhibition of various human cancer cell lines [2],PR antagonistic activity [3]
CC(=O)Cc1nsc(NC(=O)c2cc(-c3cccc(C(F)(F)F)c3)oc2C)n1 [Compound M17-B15],negligible cytotoxicity,mild to moderate inhibitory effects,moderate
"CNC(=O)c1ccc(N2C(=S)N(c3ccc(C#N)c(C(F)(F)F)c3)C(=O)C2(C)C)cc1F [Enz, enzalutamide, reference compound]",negligible cytotoxicity,mild to moderate inhibitory effects,moderate
